From US20250263395A1, “COMPOUNDS THAT MEDIATE PROTEIN DEGRADATION AND METHODS OF USE THEREOF” (Monte Rosa Therapeutics AG, priority 2022, published 2025)

Columns and labels:
[1] = target: CDK2 (Homo sapiens (Human), UniProt P24941); test: CDK2 NanoBiT assay (HiBiT-tagged CDK2 degradation); format: cell-based; settings: HEK293, HEK293 clonal line, C-terminal HiBiT tag on CDK2, LgBiT; 24 hours
Outline: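 HEK293 line with CRISPR knock-in C-terminal HiBiT-tagged CDK2 and stable LgBiT, preincubated 16 h with live-cell substrate, then compound-treated 24 h at 37° C, 5% CO2 (30 μM stock). Luminescence normalized to plate negative and positive controls; EC50 from 3-parameter logistic fit, Hill slope 1.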

[2] = target: CRBN-DDB1 (Homo sapiens (Human), UniProt Q96SW2); test: CRBN HTRF assay (Cy5-Thalidomide probe displacement); format: binding; settings: CRBN-DDB1 2.5 nM, Cy5-Thalidomide 100 nM, 30 min; Ki from geometric mean IC50 by Cheng-Prusoff
CRBN-DDB1, sequence (Q96SW2 whole entry): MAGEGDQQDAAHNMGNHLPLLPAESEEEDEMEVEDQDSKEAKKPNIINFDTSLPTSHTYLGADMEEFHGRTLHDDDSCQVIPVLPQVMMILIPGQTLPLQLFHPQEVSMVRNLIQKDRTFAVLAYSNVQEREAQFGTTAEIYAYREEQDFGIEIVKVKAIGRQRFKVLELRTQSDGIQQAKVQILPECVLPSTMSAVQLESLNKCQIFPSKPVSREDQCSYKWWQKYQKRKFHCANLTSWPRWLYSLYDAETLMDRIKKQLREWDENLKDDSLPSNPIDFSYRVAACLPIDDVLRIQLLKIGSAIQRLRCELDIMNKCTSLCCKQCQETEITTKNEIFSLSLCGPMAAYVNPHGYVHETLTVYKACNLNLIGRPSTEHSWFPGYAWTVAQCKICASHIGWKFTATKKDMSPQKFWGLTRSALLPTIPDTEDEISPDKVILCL
CRBN-DDB1, sequence (Q16531 whole entry partner): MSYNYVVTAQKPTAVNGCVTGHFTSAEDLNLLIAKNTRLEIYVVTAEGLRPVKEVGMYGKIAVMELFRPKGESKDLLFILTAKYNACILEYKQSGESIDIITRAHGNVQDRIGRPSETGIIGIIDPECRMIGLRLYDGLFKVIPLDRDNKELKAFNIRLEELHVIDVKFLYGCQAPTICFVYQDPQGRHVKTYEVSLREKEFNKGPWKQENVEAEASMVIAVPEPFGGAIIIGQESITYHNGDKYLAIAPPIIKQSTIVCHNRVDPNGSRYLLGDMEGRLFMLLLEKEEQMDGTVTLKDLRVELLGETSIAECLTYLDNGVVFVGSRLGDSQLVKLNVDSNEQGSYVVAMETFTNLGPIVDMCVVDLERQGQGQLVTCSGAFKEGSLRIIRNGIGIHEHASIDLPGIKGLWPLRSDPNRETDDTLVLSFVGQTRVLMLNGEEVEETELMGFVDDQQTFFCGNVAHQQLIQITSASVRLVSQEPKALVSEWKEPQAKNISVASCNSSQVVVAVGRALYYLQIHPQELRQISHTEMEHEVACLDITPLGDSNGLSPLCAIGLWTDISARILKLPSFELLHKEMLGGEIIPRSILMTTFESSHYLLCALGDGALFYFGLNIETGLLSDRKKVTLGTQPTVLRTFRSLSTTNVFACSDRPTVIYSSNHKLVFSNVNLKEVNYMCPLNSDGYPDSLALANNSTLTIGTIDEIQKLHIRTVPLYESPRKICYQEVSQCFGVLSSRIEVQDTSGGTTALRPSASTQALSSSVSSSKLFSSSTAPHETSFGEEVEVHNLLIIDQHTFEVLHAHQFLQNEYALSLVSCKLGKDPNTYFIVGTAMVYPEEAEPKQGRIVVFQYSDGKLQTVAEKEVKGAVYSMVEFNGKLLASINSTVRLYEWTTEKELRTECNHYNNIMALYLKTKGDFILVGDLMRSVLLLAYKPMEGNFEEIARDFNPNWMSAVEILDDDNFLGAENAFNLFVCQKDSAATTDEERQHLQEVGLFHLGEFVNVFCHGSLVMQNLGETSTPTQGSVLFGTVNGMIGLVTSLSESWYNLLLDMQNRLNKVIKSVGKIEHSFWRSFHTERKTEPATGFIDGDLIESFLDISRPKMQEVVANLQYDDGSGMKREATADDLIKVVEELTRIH
Outline: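 HTRF displacement of Cy5-thalidomide probe (100 nM) from His-CRBN-DDB1 (2.5 nM) with anti-His terbium cryptate, in HEPES/NaCl/TCEP/EDTA/Tween20 buffer. 10-point 1:3 compound series, 30 min at ambient temperature; signal normalised to DMSO and lenalidomide controls, IC50 fitted and Ki derived by Cheng-Prusoff.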

| SMILES | Dmax [1] | Ki [2] |
| --- | --- | --- |
| CN(C(=O)C12CC(OC(=O)NC3CN(c4cc(F)c(C5CCC(=O)NC5=O)c(F)c4)C3)(C1)C2)c1cccc(Cl)c1 (centres unmarked) [Compound 131, 3-((3-chlorophenyl)(methyl)carbamoyl)bicyclo[1.1.1]pentan-1-yl (1-(4-(2,6-dioxopiperidin-3-yl)-3,5-difluorophenyl)azetidin-3-yl)carbamate] | 50 to 80% | ≤ 100 nM |
| CN(C(=O)C12CC(OC(=O)NC3CN(c4cc(F)c(C5CCC(=O)NC5=O)c(F)c4)C3)(C1)C2)c1ccc(F)cc1 (centres unmarked) [Compound 132, 3-((4-fluorophenyl)(methyl)carbamoyl)bicyclo[1.1.1]pentan-1-yl (1-(4-(2,6-dioxopiperidin-3-yl)-3,5-difluorophenyl)azetidin-3-yl)carbamate] | 50 to 80% | ≤ 100 nM |
| Cc1ccc(N(C)C(=O)C23CC(OC(=O)NC4CN(c5cc(F)c(C6CCC(=O)NC6=O)c(F)c5)C4)(C2)C3)cc1 (centres unmarked) [Compound 133, 3-(methyl (p-tolyl)carbamoyl)bicyclo[1.1.1]pentan-1-yl (1-(4-(2,6-dioxopiperidin-3-yl)-3,5-difluorophenyl)azetidin-3-yl)carbamate] | 50 to 80% | ≤ 100 nM |
| Cc1cccc(N(C)C(=O)C23CC(OC(=O)NC4CN(c5cc(F)c(C6CCC(=O)NC6=O)c(F)c5)C4)(C2)C3)c1 (centres unmarked) [Compound 134, 3-(methyl(m-tolyl)carbamoyl)bicyclo[1.1.1]pentan-1-yl (1-(4-(2,6-dioxopiperidin-3-yl)-3,5-difluorophenyl)azetidin-3-yl)carbamate] | 50 to 80% | ≤ 100 nM |
| Cc1ccccc1N(C)C(=O)C12CC(OC(=O)NC3CN(c4cc(F)c(C5CCC(=O)NC5=O)c(F)c4)C3)(C1)C2 (centres unmarked) [Compound 135, 3-(methyl(o-tolyl)carbamoyl)bicyclo[1.1.1]pentan-1-yl (1-(4-(2,6-dioxopiperidin-3-yl)-3,5-difluorophenyl)azetidin-3-yl)carbamate] | 50 to 80% | 100 to 1000 nM |
| COc1c(N2CC(C)(Nc3nnc(-c4ccc(OC(F)(F)F)cc4)o3)C2)ccc(C2CCC(=O)NC2=O)c1F (centres unmarked) [Compound 136, 3-(2-fluoro-3-methoxy-4-(3-methyl-3-((5-(4-(trifluoromethoxy)phenyl)-1,3,4-oxadiazol-2-yl)amino)azetidin-1-yl)phenyl)piperidine-2,6-dione] | 50 to 80% | ≤ 100 nM |
| CN(C(=O)N1CC(OC(=O)NC2CN(c3cc(F)c(C4CCC(=O)NC4=O)c(F)c3)C2)C1)c1ccc(Cl)cc1 (centres unmarked) [Compound 138, 1-((4-chlorophenyl)(methyl)carbamoyl)azetidin-3-yl (1-(4-(2,6-dioxopiperidin-3-yl)-3,5-difluorophenyl)azetidin-3-yl)carbamate] | 50 to 80% | ≤ 100 nM |
| COC12CC(c3nnc(N[C@H]4CN(c5cc(F)c(C6CCC(=O)NC6=O)c(F)c5)[C@@H]4C)o3)(C1)C2 (stereo partly drawn) [Compound 139, 3-(2,6-difluoro-4-((2R,3S)-3-((5-(3-methoxybicyclo[1.1.1]pentan-1-yl)-1,3,4-oxadiazol-2-yl)amino)-2-methylazetidin-1-yl)phenyl)piperidine-2,6-dione] | 50 to 80% | 100 to 1000 nM |

Results, then the molecule that gave them:

| Dmax [1] | Ki [2] | SMILES |
| --- | --- | --- |
| 50 to 80% | 100 to 1000 nM | C[C@@H]1[C@@H](Nc2nnc(C34CC(C(F)(F)F)(C3)C4)o2)CN1c1cc(F)c(C2CCC(=O)NC2=O)c(F)c1 (stereo partly drawn) [Compound 140, 3-(2,6-difluoro-4-((2R,3S)-2-methyl-3-((5-(3-(trifluoromethyl)bicyclo[1.1.1]pentan-1-yl)-1,3,4-oxadiazol-2-yl)amino)azetidin-1-yl)phenyl)piperidine-2,6-dione] |
| 50 to 80% | 100 to 1000 nM | C[C@@H]1[C@@H](Nc2nnc(-c3ccc(C(F)(F)F)cc3)o2)CN1c1cc(F)c(C2CCC(=O)NC2=O)c(F)c1 (stereo partly drawn) [Compound 141, 3-(2,6-difluoro-4-((2R,3S)-2-methyl-3-((5-(4-(trifluoromethyl)phenyl)-1,3,4-oxadiazol-2-yl)amino)azetidin-1-yl)phenyl)piperidine-2,6-dione] |
| 50 to 80% | ≤ 100 nM | C[C@@H]1[C@@H](Nc2nnc(C3CC4(CCC4)C3)o2)CN1c1cc(F)c(C2CCC(=O)NC2=O)c(F)c1 (stereo partly drawn) [Compound 142, 3-(2,6-difluoro-4-((2R,3S)-2-methyl-3-((5-(spiro[3.3]heptan-2-yl)-1,3,4-oxadiazol-2-yl)amino)azetidin-1-yl)phenyl)piperidine-2,6-dione] |
| 50 to 80% | 100 to 1000 nM | Cc1ccc(-c2nnc(N[C@H]3CN(c4cc(F)c(C5CCC(=O)NC5=O)c(F)c4)[C@@H]3C)o2)cc1 (stereo partly drawn) [Compound 143, 3-(2,6-difluoro-4-((2R,3S)-2-methyl-3-((5-(p-tolyl)-1,3,4-oxadiazol-2-yl)amino)azetidin-1-yl)phenyl)piperidine-2,6-dione] |
| 50 to 80% | ≤ 100 nM | C[C@@H]1[C@@H](Nc2nnc(-c3ccc(OC(F)(F)F)cc3)o2)CN1c1cc(F)c(C2CCC(=O)NC2=O)c(F)c1 (stereo partly drawn) [Compound 144, 3-(2,6-difluoro-4-((2R,3S)-2-methyl-3-((5-(4-(trifluoromethoxy)phenyl)-1,3,4-oxadiazol-2-yl)amino)azetidin-1-yl)phenyl)piperidine-2,6-dione] |
